Test results reported in PMC11868579 (Nature Communications, 2024).
Several values for one entry are separate records, joined by “and”; a condition that tells them apart may be missing. Equal values may be shown once.

How the values were obtained:
c-Myc-activity = assay: c-Myc-regulated luciferase reporter in SW620 cells; assay type: cell-based, human; settings: for c-Myc, Average / CMV, Average: SW620; for c-Myc, Average: c-Myc-regulated firefly luciferase reporter; for CMV, Average: constitutive CMV promoter-regulated renilla luciferase reporter
Procedure: Luminescence was measured using the Dual-glo luciferase assay (mean ± SEM from 3 biological replicates). b SW620 cells were transfected with a c-Myc-regulated firefly luciferase expression reporter or a constitutive CMV promoter-regulated renilla luciferase reporter. Cells were treated for 24 hr with 1 or 10 µM compound 4 or the […] kinase inhibitor AZD8055 as positive control (mean ± SEM from 3 biological replicates). An ordinary one-way ANOVA with Tukey multiple comparisons test was performed comparing c-Myc-regulated firefly luciferase expression or CMV-regulated Renilla luciferase expression following the different treatments. For c-Myc-regulated firefly luciferase expression, all significant p values […]
were <0.0001. […]
Source data is located in the Supplementary Source Data file

Caco-2 monolayer = assay: Caco-2 permeability assay; assay type: in vitro ADME
Procedure: Caco-2 permeability Assay
The permeability of Compound 4 was assessed using the CacoReady system.
Compound 4 and control compounds (propranolol, antipyrine, and vinblastine) were incubated at a final concentration of 10 µM in duplicate to either the apical (180 µL) of the monolayer to measure apical to basolateral transport (A > B) across the cell barrier or to the basolateral side (750 µL) to measure the basolateral to apical transport (B > A). For A > B spiking, test and control compounds were diluted from 10 mM DMSO stocks to 10 µM in HBSS buffer with 100 mM CaCl2·2H2O, 50 mM MgCl2·5H2O, and 0.5 mg/mL lucifer yellow made to volume with sterile water (lucifer yellow was used to determine the integrity of the Caco-2 monolayer). For B > A compound spiking, test and control compounds were prepared as for the A > B solutions without the addition of lucifer yellow. Test and control compounds were incubated for 1 h at +37 °C in a highly humidified atmosphere of 95% air and 5% CO2. […]

eIF4E:eIF4G interaction = eIF4E:eIF4G interaction (Homo sapiens, UniProt P06730); assay: Electro-chemiluminescent binding assay, eIF4E:eIF4G, SW620 cell lysates; assay type: biochemical; parameters: endogenous in cells; host or cells: SW620 cells (lysates); settings: for eIF4G:eIF4E luminescence signal normalised to DMSO control: SW620, Expt 1, Expt 2, Fig. 4d
Procedure: This assay uses plates with carbon electrodes and electro-chemiluminescent labels (SULFO-TAGs) that are conjugated to detection antibodies. When an electric current is applied to the plate electrodes the SULFO-TAG labels will emit light that is measured to quantify analytes in the sample. […] The plates were washed with 3 ×150 µl/well MSD wash buffer (cat#R61AA-1; 0.2% Tween-20 in PBS), then blocked with 150 µl/well block buffer (MSD, cat# R93AA) for 1 h. […] The incubated plates were washed 4x in 150 µl in MSD wash buffer and were re-blocked by the addition of 25 μl of blocking buffer containing a 1:500 dilution of the secondary antibody and incubated for 1 hr at RT with rotational shaking. […] Plates were then washed again 4x in 150 µl in MSD wash buffer and 25 μl of a 1:50 dilution of Goat anti-rabbit Sulfo-Tag (MSD, Cat# R32AB-1) in MSD blocking buffer was added and the plates incubated for 1 h at RT with rotational shaking. After a final wash step, 150 μl Read Buffer T4X (MSD, Cat# R92-TC2) was added and the plate read using the MSD QuickPlex SQ 120 plate reader.

parent H1299 cells = assay: MCL1 and growth in parental H1299 cells; assay type: cell-based, human
Procedure: Real time monitoring of cell growth was performed with the IncuCyte ZOOM live cell imaging system (Essen BioSciences, USA). Cells were seeded in 96 well plates (Corning, cat#353072) and treated on the next day. The resulting phase-contrast images were analysed using IncuCyte ZOOM 2018A software and results were expressed as percentage confluency of cells.
After seeding overnight in 6 well plates (Corning, cat#353046), cells were treated with compounds for the indicated times and concentration, harvested and the cell pellet lysed on ice in cell lysis buffer (Cell Signaling, cat#9803), supplemented with 1x Halt^TM protease inhibitor cocktail (Fisher Scientific, cat#78429) and cOmplete^TM protease inhibitor cocktail (Sigma-Aldrich, cat#11836153001) for 1 hr. Protein was quantified using BCA protein kit (Fisher Scientific, cat#23225). Western blot was performed using NuPAGE^TM 4–12% Bis-Tris gels (Fisher Scientific, cat#NP0336BOX) and transferred using the Invitrogen iBLOT^TM gel transfer device system (Fisher Scientific, Cat#IB21001). […] All primary antibodies were diluted (1:1000) in 5% BSA (Sigma-Aldrich, cat#A7906) in 1x TBS and 0.1% Tween 20 (Sigma-Aldrich, cat#P1379), except for vinculin (1:2000) that was diluted in casein blocker (Sigma-Aldrich, cat#1610782). […] Quantitative densitometry analysis of protein bands was performed using Image J v1.53 software.

Sequence of eIF4E:eIF4G interaction (P06730 2-217 limits assumed): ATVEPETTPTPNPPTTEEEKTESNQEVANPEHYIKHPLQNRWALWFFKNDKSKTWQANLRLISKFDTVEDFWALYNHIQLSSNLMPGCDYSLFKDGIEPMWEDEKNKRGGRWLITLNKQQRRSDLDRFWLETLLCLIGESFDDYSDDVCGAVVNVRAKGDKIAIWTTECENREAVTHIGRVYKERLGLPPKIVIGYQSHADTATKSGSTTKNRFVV

CC[C@H](O[C@H](C)CO)c1ccc(-c2ccccc2F)cc1NCCO [Compound 4]
c-Myc, Average (c-Myc-activity; 1μM): 80.09 | CMV, Average (c-Myc-activity; 1μM): 89.27 | c-Myc, Average (c-Myc-activity; 10μM): 67.68 | CMV, Average (c-Myc-activity; 10μM): 82.92 | activity in c-Myc reporter assay (c-Myc-activity; SW620 cells, 1 or 10 µM, 24 hr): showed no activity | permeability in Caco2 assay (Caco-2 monolayer): good permeability | Caco-2 permeability Papp (A-B) (Caco-2 monolayer; 10 µM, 1 h): 9 ×10⁻⁶ cm/s | efflux ratio (Caco-2 monolayer; Caco2): 1.5 | eIF4G:eIF4E luminescence signal normalised to DMSO control (eIF4E:eIF4G interaction; 0.4 μM): 89% and 92.6% | eIF4G:eIF4E luminescence signal normalised to DMSO control (eIF4E:eIF4G interaction; 4 μM): 47.4% and 46.9% | eIF4G:eIF4E luminescence signal normalised to DMSO control (eIF4E:eIF4G interaction; 12 μM): 33.5% and 31.6% | eIF4G:eIF4E luminescence signal normalised to DMSO control (eIF4E:eIF4G interaction; 40 μM): 20.4% and 20.8% | eIF4G:eIF4E SW620, luminescence ratio normalised to DMSO control (eIF4E:eIF4G interaction; SW620 lysates, 100 µM, 30 min, single experiments Expt 1, Expt 2): 23% and 19% | EC50 (eIF4E:eIF4G interaction; read-out: EC50, eIF4G binding to eIF4E, SW620 cell lysates, 30 min): 2.6 µM

CC[C@H](C(=O)N1CCCC[C@H]1C(=O)O[C@H](CCc1ccc(OC)c(OC)c1)c1ccccc1OCC(=O)NCCCCCCC(=O)N[C@H](C(=O)N1C[C@H](O)C[C@H]1C(=O)N[C@@H](C)c1ccc(-c2scnc2C)cc1)C(C)(C)C)c1cc(OC)c(OC)c(OC)c1 [dTAG^V-1]
effect on MCL1 or proliferation in parent cells (parent H1299 cells): no effect on MCL1 or proliferation
